System: Escherichia coli (DSM 1576)
Assay: Antibacterial activity of haloperoxidase, hydrogen peroxide and a buffer compound against Escherichia coli cells (conductance measurement, Malthus)
Assay type: cell-based
Details: for Log CFU/ml (reduction in number of living bacterial cells): buffer 50 mM, 40° C., 20 minutes, approx. 10^6 CFU/ml; for bactericidal activity: carboxylic acid as buffer with haloperoxidase and hydrogen peroxide (Table 1), log CFU/ml reduction of more than 6 units corresponds to 100%
Protocol: Antimicrobial activity may be measured in terms of the number of log reductions. The term “log reduction” is defined as a logarithmic reduction of the number of living cells, e.g. 1 log reduction corresponds to a reduction in living cell number of Escherichia coli DSM1576 or Enterococcus faecalis DSM2570 from Y×10^X CFU/M (CFU: […] The number of living bacteria are to be determined as the number of E. coli or E. faecalis, respectively, which can grow on Tryptone Soya Agar plates at 30° C. The antibacterial activity of a system composed of a haloperoxidase and hydrogen peroxide were tested in a variety of buffers (including both carboxylic acids and other buffer compounds) and pH against Escherichia coli (DSM 1576). The E. coli cells were grown in Brain Heart Infusion broth (BHI) until stationary growth phase (30° C., 20 hours). […] Subsequently the solution was incubated in a 96-well MicroWell plate (Nunc A/S, Denmark) at 40° C. in 20 minutes. […] The detection times measured by the Malthus instrument were converted to CFU/ml by a calibration curve.

[1] = pH 5, rCvP 0.5 mg/L, H2O2 0.5 mM
[2] = pH 6, rCvP 0.5 mg/L, H2O2 0.5 mM
[3] = pH 7, rCvP 0.1 mg/L, H2O2 0.25 mM

Compound	Log CFU/ml (reduction in number of living bacterial cells) [1]	bactericidal activity	Log CFU/ml (reduction in number of living bacterial cells) [2]	Log CFU/ml (reduction in number of living bacterial cells) [3]	Log CFU/ml (reduction in number of living bacterial cells) (pH 8, rCvP 1 mg/L, H2O2 1 mM)
O=C(O)CC(O)(CC(=O)O)C(=O)O [Citric acid]	6.4 Log CFU/ml	100%	–	–	–
CC(C)(CC(=O)O)CC(=O)O [Dimethylglutaric acid (DMG), Dimethylglutaric acid]	–	100%	6.7 Log CFU/ml	7.3 Log CFU/ml	–
O=P([O-])(O)O.[K+] [KH2PO4]	–	–	–	0.3 Log CFU/ml	0.4 Log CFU/ml
CC(=O)O [Acetic acid]	6.0 Log CFU/ml	100%	–	–	–
Tris(hydroxymethyl)amino-methane [Tris(hydroxymethyl)amino-methane (TRIS)]	–	–	–	0.3 Log CFU/ml	0.5 Log CFU/ml
O=S(=O)(O)CCN1CCN(CCO)CC1 [HEPES]	–	–	–	0.7 Log CFU/ml	0.6 Log CFU/ml
O=S(=O)(O)CCN1CCOCC1 [2-(N-morpholino) ethanesulfonic acid]	–	–	0.6 Log CFU/ml	–	–

Reference: patent US20020137655A1, “Use of haloperoxidase, peroxide and carboxylic acid” (Novozymes A/S, priority 2000, published 2002)
